Data from publication PMC9202147, “In vitro anti-HIV and cytotoxic effects of pure compounds isolated from Croton macrostachyus Hochst. Ex Delile” (BMC Complementary Medicine and Therapies, 2022).
In brackets after ≈: the same amount, converted by molar mass. Read-outs that look alike come from different tables or passages of the source.

Tests used:
MT-4 cells = test: in vitro; settings: 5 days, MTT, mean ± S.E.M (n = 3); for MNTC (maximum nontoxic concentration): concentration with cell viability above 80% (CC20)
Experimental: (§1) A cytotoxicity test was conducted to evaluate the safety of the plant extracts by measuring cell death caused by the plant extracts. The assay was conducted using an MTT colorimetric assay. The MTT assay was based on the reduction of the yellow-colored tetrazolium salt MTT 3-(4,5-dimethylthiazol-2-yl)-2,5-diphenyltetrazolium bromide) by NAD(P)H-dependent cellular oxidoreductase enzymes to an insoluble dark-blue colored formazan that can be measured spectrophotometrically. Formazan production indicates the number of viable cells; therefore, an increase or decrease in cellular viability results in a change in the amount of formazan formed, which indicates the degree of cellular cytotoxicity (CC50) caused by the plant extract. MTT (3-(4,5-dimethylthiazol-2-yl)-2,5-diphenyl tetrazolium bromide) was dissolved in PBS to obtain a final concentration of 5 mg/ml and filtered to sterilize and remove insoluble residue. The assay was carried out in 96-well, flat-bottomed microtiter plates. To each well, 200 μl of MT-4 cells (1 × 10^5 cells) in growth media was added. The plates were preincubated for 24 h at 37 °C to allow stabilization. Then, 50 μL of the test compounds (at a concentration of 4 mg/ml) were added to the first column of the well. With a multichannel pipette, 50 μL was transferred (in triplicate) from the wells labeled 1 to wells labeled 2, and such transfers were continued (serial dilution), moving from left to right, changing tips prior to mixing contents of the next column of wells. Finally, 50 μL was discarded from the wells in column 12. […] Each dilution was tested in triplicates. The negative control (NC) wells contained 50 μl of MT-4 cells in 0.5% DMSO [52]. […] A 96-well microtiter plate containing the test compounds and positive and negative controls was incubated at 37 °C in a humidified atmosphere of 5% CO2 for 5 days. After incubation, 20 μl of MTT reagent (5 mg/ml MTT in phosphate-buffered saline) was added to each test well and control well. The plate was further incubated at 37 °C in a CO2 incubator for 4 hours. After 4 hours of incubation, 100 μl of DMSO was added to dissolve the dark-blue formazan crystals from surviving cells. After the formazan crystals were dissolved completely, the resulting optical density (OD) readings were measured relative to the controls on an ELISA plate reader at 570 nm with a reference wavelength of 620 nm. For each extract and pure compound tested, 3 triplicate determinations were performed. […] The concentration that determined cell viability above 80% (CC20) was chosen as the maximum non-toxic concentration (MNTC).

HIV-1IIIB virus = test: Anti-HIV activity: inhibition of HIV-1-induced cytopathic effect in MT-4 cells, MTT colorimetric assay; type: cell-based; settings: for SI (selective index): ratio of CC50 to EC50, MT-4 cells; for Emax: read-out: EmaxAV (maximum antiviral effect %, inhibition of virus-induced CPE)
Experimental: The effects of the test compounds in preventing cytopathic effects that occur because of HIV-1 replication were evaluated by MTT colorimetric assay. MT-4 cells suspended at 1 X 10^8 cells/ml were infected with 640 μL of HIV-1IIIB virus at 1.26 X10^8 TCID50/ml. After infection, 200 μl HIV-infected MT-4 cells (1 X10^5 cells/well) in growth media were added to each well. The plates were preincubated for 24 h at 37 °C to allow stabilization. Then, 50 μL of the test compounds (at a concentration of 4 mg/ml) were added to the first column of the well. With a multichannel pipette, 50 μL was transferred (in triplicate) from the wells labeled 1 to wells labeled 2. Such transfers were continued (serial dilution), moving from left to right, changing tips prior to mixing contents of the next column of wells. Finally, 50 μL was discarded from the wells in column 12. Different concentrations ([…]) of test compounds were prepared through serial dilution. Each dilution was tested in triplicates. The microtiter plates were incubated at 37 °C in a 5% CO2 incubator for 5 days. […] After 5 days of incubation, cell viability was determined by the MTT assay described. All compounds were assayed in triplicate.

in vitro = settings: human, MT-4 cells
Experimental: as §1

HIV = test system: HIV; set-up: method as in ref 61 (Chaniad et al); settings: ref 61 (Chaniad et al); read-out: IC50 against HIV; cited from earlier work
[1] = biological target: HIV-1 RT-associated RNase H function; set-up: method as in ref 62 (Esposito et al); settings: ref 62 (Esposito et al); cited from earlier work
[2] = HIV-1IIIB-infected MT-4 cells, 5 days, MTT, mean ± S.E.M (n = 3)
[3] = Human immunodeficiency virus 1, MT4, 120 h, read-out: IC50 (50% antiviral effect concentration), HIV-1IIIB-infected MT-4 cells, 5 days, MTT, mean ± S.E.M (n = 3)
[4] = Human immunodeficiency virus 1, MT4, 120 h, HIV-1IIIB-infected MT-4 cells, 5 days, MTT, mean ± S.E.M (n = 3)
[5] = CC50 (50% cytotoxic concentration), 5 days, MTT, mean ± S.E.M (n = 3)
[6] = Human immunodeficiency virus 1, MT4, 120 h, read-out: IC50 (50% antiviral effect concentration)

| SMILES | MNTC (maximum nontoxic concentration) (MT-4 cells) [µg/mL] | CC50 (50% cytotoxic concentration) (MT-4 cells) [µg/mL] | EmaxC (maximum cytotoxic effect %) (MT-4 cells) [%] | EmaxAV (maximum antiviral effect %, inhibition of virus-induced CPE) (HIV-1IIIB virus; [2]) [%] | IC50 (HIV-1IIIB virus; [3]) [µg/mL] | SI (selective index) (HIV-1IIIB virus) | CC50 at 5 days (in vitro) [µg/mL] | Emax (HIV-1IIIB virus; [4]) [%] | CC50 at 5 days (in vitro; [5]) [µg/mL] | IC50 (HIV-1IIIB virus; Human immunodeficiency virus 1, MT4, as stated in abstract/conclusions, read-out: anti-HIV-1 inhibition IC50) [nM] | IC50 (HIV) [µM] | IC50 (HIV-1IIIB virus; Human immunodeficiency virus 1, MT4, read-out: anti-HIV-1 inhibition IC50) [nM] | IC50 (HIV-1IIIB virus; Human immunodeficiency virus 1, MT4, as stated in abstract, read-out: anti-HIV-1 inhibition IC50) [µg/mL] | IC50, HIV-1 RT-associated RNase H function [1] [µM] | Emax (HIV-1IIIB virus; Human immunodeficiency virus 1, MT4, 120 h) [%] | IC50 (HIV-1IIIB virus; [6]) [µg/mL] |
| --- | --- | --- | --- | --- | --- | --- | --- | --- | --- | --- | --- | --- | --- | --- | --- | --- |
| Nc1nc(NC2CC2)c2ncn([C@H]3C=C[C@@H](CO)C3)c2n1 [ABC, Abacavir, reference compound] | 0.18 ± 0.03 | 0.26 ± 0.00 (≈ 0.908 µM) | 17.83 ± 0.57 | 58.67 ± 0.43 | 0.05 ± 0.031 | 5.0 |  |  |  |  |  |  |  |  |  |  |
| Cc1cn([C@H]2C[C@H](N=[N+]=[N-])[C@@H](CO)O2)c(=O)[nH]c1=O [AZT, Zidovudine, reference compound] |  |  |  | 83.5 ± 0.57 |  |  |  |  |  |  |  |  |  |  |  |  |
| COc1ccccc1COC(=O)c1ccccc1 [Compound 1, 2-methoxy benzyl benzoate] |  |  | 39.1 ± 2.22 |  | 0.25 ± 0.02 | 0.0073 | 0.001 (≈ 0.00413 µM) | 53.2 ± 3.35 |  |  |  |  |  |  |  |  |
| C=C(C)[C@@H]1CC[C@]2(C)CC[C@]3(C)[C@H](CC[C@@H]4[C@@]5(C)CCC(=O)C(C)(C)[C@@H]5CC[C@]43C)[C@@H]12 [Compound 2, lupenone] | 14.17 ± 0.94 | 28.83 ± 0.54 (≈ 67.9 µM) | 38.53 ± 0.69 |  | 0.002 ± 0.001 | 14,084.0 |  | 64.74 ± 0.52 | 32.5 ± 0.7 (≈ 76.4 µM) | 4.7 |  |  |  |  |  |  |
| C=C(C)[C@@H]1CC[C@]2(CO)CC[C@]3(C)[C@H](CC[C@@H]4[C@@]5(C)CC[C@H](O)C(C)(C)[C@@H]5CC[C@]43C)[C@@H]12 [Compound 4, betulin] | 16.54 ± 0.35 |  | 55.13 ± 0.15 |  | 0.002 ± 0.04 | 15,551.2 |  | 76 | 31.7 ± 0.55 (≈ 71.7 µM) |  | 17.7 ± 0.6 | 4.5 | 4.5 |  |  |  |
| C=C(C)[C@@H]1CC[C@]2(C)CC[C@]3(C)[C@H](CC[C@@H]4[C@@]5(C)CC[C@H](O)C(C)(C)[C@@H]5CC[C@]43C)[C@@H]12 [Compound 5, lupeol] | 75.75 ± 0.74 |  | 70.28 ± 0.75 |  | 0.047 ± 0.02 | 3048.2 |  | 77.01 ± 0.38 | 141.8 ± 0.7 (≈ 332 µM) |  |  |  |  | 11.6 |  |  |
| CC[C@H](/C=C/[C@@H](C)[C@H]1CC[C@H]2[C@@H]3CC=C4C[C@@H](O)CC[C@]4(C)[C@H]3CC[C@]12C)C(C)C [Compound 7, stigmasterol] | 4.70 ± 3.43 |  | 43.71 ± 2.02 |  |  | 86.5 |  |  | 12.4 ± 10.9 (≈ 30 µM) |  |  |  |  |  | 76.8 ± 23.2 | 0.14 ± 0.04 |
| Cc1ccnc2c1NC(=O)c1cccnc1N2C1CC1 [NVP, Nevirapine, reference compound] | 0.57 ± 0.0 | 0.82 ± 0.0 (≈ 3.08 µM) | 39.13 ± 0.65 | 72.53 ± 0.47 | 0.24 ± 0.09 | 3.5 |  |  |  |  |  |  |  |  |  |  |
| C[C@H](Cn1cnc2c(N)ncnc21)OCP(=O)(O)O [TDF, Tenofovir, reference compound] | 4.92 ± 0.71 | 6.73 ± 0.24 (≈ 23.4 µM) | 13.17 ± 0.43 | 80.55 ± 0.46 |  |  |  |  |  |  |  |  |  |  |  | 0.04 ± 0.01 |
